# From patent publication EP1082127B1 (WARNER-LAMBERT COMPANY LLC, priority 1998, dated 1999)
# Counter-ions that a name gives are not always drawn.
# Assays:
# [1] = tested on: IL-1β production in human peripheral blood mononuclear cells (PBMCs); experiment: PBMC Cellular Assay - IC50 Determinations (LPS-stimulated IL-1β production, ELISA); format: cell-based; conditions: human PBMCs stimulated overnight with 10 ng/mL LPS, mature IL-1β by ELISA
# In short: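 Ficoll-isolated human PBMCs (10^6/well, RPMI with 2% human AB serum) were stimulated overnight with LPS 10 ng/mL (E. coli 0111:B4) with or without compound. Mature IL-1β in medium measured by ELISA; viability checked by MTT over a further 4 h.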
# [2] = target: T1, ICE (Homo sapiens, UniProt P29466); experiment: ICE inhibition, Ki determination (fluorogenic substrate Ac-Tyr-Val-Ala-Asp-AMC); format: biochemical; conditions: 15 µM Ac-Tyr-Val-Ala-Asp-AMC, 0.5 nM enzyme, 30°C, reversible competitive model
# T1 sequence (P29466 120-297 limits assumed): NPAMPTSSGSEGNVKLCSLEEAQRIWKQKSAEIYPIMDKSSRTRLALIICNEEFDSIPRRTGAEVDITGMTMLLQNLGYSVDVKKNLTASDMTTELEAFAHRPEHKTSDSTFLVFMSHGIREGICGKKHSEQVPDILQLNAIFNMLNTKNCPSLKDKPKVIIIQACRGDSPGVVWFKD
# T1 sequence (P29466 317-404 limits assumed): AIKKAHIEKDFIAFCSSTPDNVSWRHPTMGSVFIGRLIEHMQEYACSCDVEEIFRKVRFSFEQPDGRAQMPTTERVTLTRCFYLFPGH
# [3] = target: T2, Ich-2 enzyme (Homo sapiens, UniProt P49662); experiment: Ich-2 Colorimetric Dose-Response (IC50) Assay; format: biochemical; conditions: enzyme 64 nM, 60 µM Ac-Leu-Glu-Val-Asp-pNA; read-out: ICH2 IC50 (Caspase 4)
# T2 sequence (P49662 81-270 limits assumed): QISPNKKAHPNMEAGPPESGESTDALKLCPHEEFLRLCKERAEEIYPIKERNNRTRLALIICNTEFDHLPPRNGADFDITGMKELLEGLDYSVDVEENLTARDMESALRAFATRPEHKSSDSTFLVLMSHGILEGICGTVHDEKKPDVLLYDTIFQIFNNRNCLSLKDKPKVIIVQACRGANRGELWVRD
# T2 sequence (P49662 290-377 limits assumed): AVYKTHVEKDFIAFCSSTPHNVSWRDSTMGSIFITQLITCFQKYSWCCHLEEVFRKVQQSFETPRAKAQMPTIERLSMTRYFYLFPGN
# In short: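 Enzyme at 64 nM in HGE buffer (Hepes pH 7.5, EDTA, glycerol, BSA), activated with 5 mM DTT, preincubated 60 min at ambient temperature with two-fold serially diluted inhibitor, in triplicate. Ac-Leu-Glu-Val-Asp-pNA added at 60 µM; A405 followed for 1 h at 25°C, rate used as activity.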
# [4] = target: T1, ICE; experiment: ICE Colorimetric Dose-Response (IC50) Assay; format: biochemical; conditions: 60 minutes preincubation, 50 µM Ac-Tyr-Val-Ala-Asp-pNA, 25°C
# In short: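 Human ICE (~24 nM in HGE buffer, pH 7.5, activated with 5 mM DTT) preincubated 60 min at ambient temperature with two-fold serial inhibitor dilutions, in triplicate. Ac-Tyr-Val-Ala-Asp-pNA added at 50 µM; A405 followed for 1 h at 25°C starting 5 min after substrate, activity taken as mean rate.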
SMILES,Ki [2] [nM],IC50 [3] [nM],IC50 [4] [nM],IC50 [1] [nM]
"CC(C)C(CC(=O)NCCCc1ccncc1)C(=O)NC(CC(=O)O)C(=O)CNS(=O)(=O)CC12CCC(CC1=O)C2(C)C (stereo not drawn) [Example 26, 5-(7,7-Dimethyl-2-oxo-bicyclo[2.2.1]hept-1-ylmethanesulfonylamino)-3-{3-methyl-2-[(3-pyridin-4-yl-propylcarbamoyl)-methyl]-butyrylamino}-4-oxo-pentanoic acid]",26.6,9910,136,2000
"Cc1cc2ncn(CCN(C)C(=O)CC(C(=O)NC(C=O)CC(=O)O)C(C)C)c2cc1C (stereo not drawn) [Example 60, 3-[2-({[2-(5,6-Dimethyl-benzoimidazol-1-yl)-ethyl]-methylcarbamoyl}-methyl)-3-methyl-butyrylamino]4-oxo-butyric acid]",9.2,12700,468,5000
"CC(C)C(CC(=O)NCCn1cnc2ccccc21)C(=O)NC(C=O)CC(=O)O (stereo not drawn) [Example 53, 3-{2-[(2-Benzoimidazol-1-yl-ethylcarbamoyl)-methyl]-3-methyl-butyrylamino}-4-oxo-butyric acid]",20,32500,73.7,8300
"CC(C)C(CC(=O)NCCCc1ccccc1)C(=O)NC(CC(=O)O)C(=O)CNS(=O)(=O)CC12CCC(CC1=O)C2(C)C (stereo not drawn) [Example 12, 5-(7,7-Dimethyl-2-oxo-bicyclo[2.2.1]hept-1-ylmethanesulfonylamino)-3-{3-methyl-2-[(3-phenyl-propylcarbamoyl)-methyl]-butyrylamino}-4-oxo-pentanoic acid]",12.8,1710,61,1200
"CC(C)C(CC(=O)NCCc1nnn[nH]1)C(=O)NC(CC(=O)O)C(=O)CNS(=O)(=O)CC12CCC(CC1=O)C2(C)C (stereo not drawn) [Example 34, 5-(7,7-Dimethyl-2-oxo-bicyclo[2.2.1]hept-1-ylmethanesulfonylamino)-3-(3-methyl-2-{[2-(1H-tetrazol-5-yl)-ethylcarbamoyl]-methyl}-butyrylamino)-4-oxo-pentanoic acid]",16.6,1100,115,2600
"CC(C)C(CC(=O)NCCc1cn(C)c2ccc(F)cc12)C(=O)NC(C=O)CC(=O)O (stereo not drawn) [Example 55, 3-(2-{[2-(5-Fluoro-1-methyl-1H-indol-3-yl)-ethylcarbamoyl]-methyl}-3-methyl-butyrylamino)-4-oxo-butyric acid]",7.9,11500,37,5300
"CC(CC(=O)NCCc1ccccc1)C(=O)NC(CC(=O)O)C(=O)CNS(=O)(=O)CCc1ccccc1 (stereo not drawn) [Example 1, 3-(2-Methyl-3-phenethylcarbamoyl-propionylamino)-4-oxo-5-(2-phenylethanesulfonylamino)-pentanoic acid]",1600,89000,14500,82500

# Second part, led by results:
Ki [2] [nM],IC50 [3] [nM],IC50 [4] [nM],SMILES,IC50 [1] [nM]
32.9,4680,79,"CC(C)C(CC(=O)NCCCc1ccc(O)cc1)C(=O)NC(CC(=O)O)C(=O)CNS(=O)(=O)CC12CCC(CC1=O)C2(C)C (stereo not drawn) [Example 17, 5-(7,7-Dimethyl-2-oxo-bicyclo[2.2.1]hept-1-ylmethanesulfonylamino)-3-{3-methyl-2-[[3-(4-hydroxyphenyl)-propylcarbamoyl]-methyl]-butyrylamino}-4-oxo-pentanoic acid]",2250
2.9,4430,14.5,"Cc1cc2ncn(CCNC(=O)CC(C(=O)NC(C=O)CC(=O)O)C(C)C)c2cc1C (stereo not drawn) [Example 23, 3-(2-{[2-(5,6-Dimethyl-benzoimidazol-1-yl)-ethylcarbamoyl]-methyl}-3-methyl-butyrylamino)-4-oxo-butyric acid, trifluoroacetate salt]",3600
142,9590,1060,"CC(C)C(CC(=O)NCCc1ccccc1)C(=O)NC(CC(=O)O)C(=O)CNS(=O)(=O)CC12CCC(CC1)C2(C)C (stereo not drawn) [Example 6, 5-(7,7-Dimethyl-bicyclo[2.2.1]hept-1-ylmethanesulfonylamino)-3-[3-methyl-2-(phenethylcarbamoyl-methyl)-butyrylamino]-4-oxo-pentanoic acid]",3250
6.7,250,52,"CC(C)C(CC(=O)NCCCc1ccccc1)C(=O)NC(CC(=O)O)C(=O)COc1ccc2oc(=O)ccc2c1 (stereo not drawn) [Example 13, 3-{3-Methyl-2-[(3-phenyl-propylcarbamoyl)-methyl]-butyrylamino}-4-oxo-5-(2-oxo-2H-chromen-6-yloxy)-pentanoic acid]",2350
23.6,3010,89.4,"CC(C)C(CC(=O)NCCc1ccc2ccccc2c1)C(=O)NC(CC(=O)O)C(=O)CNS(=O)(=O)CC12CCC(CC1=O)C2(C)C (stereo not drawn) [Example 18, 5-(7,7-Dimethyl-2-oxo-bicyclo[2.2.1]hept-1-ylmethanesulfonylamino)-3-{3-methyl-2-[(2-naphthalen-2-yl-ethylcarbamoyl)-methyl]-butyrylamino}-4-oxo-pentanoic acid]",2050
